This passage reports Activity, viability and T/C results from ChEMBL document CHEMBL5712891, “Inhibition of BET bromodomain-dependent XIAP and FLIP expression sensitizes KRAS-mutated NSCLC to pro-apoptotic agents” (Cell Death Dis, 2016).

Activity calls are given as the source filed them. No cut-off for these calls is given here.

In assay [1] the test system is NCI-H2030. Nature of the assay: Induction of TRAIL dependent apoptosis in human NCI-H2030 cells by annexin V-PI staining based flow cytometric analysis. Type of assay: functional, cell-based.
The subject of assay [2] is NCI-H1373. Description: Induction of apoptosis in human NCI-H1373 cells assessed as viable cells at 0.5 uM for 24 hrs by annexin V-PI staining based flow cytometric analysis (reference value: 77.7%). As to conditions: read-out: Activity. The assay is classed as functional.
The subject of assay [3] is NCI-H1792. Nature of the assay: Downregulation of c-MYC protein expression level in human NCI-H1792 cells at 1 uM for 24 hrs by […] analysis. Type of assay: functional, cell-based.
Assay [4] concerns A549. Description: Induction of apoptosis in human A549 cells assessed as early apoptotic cells at 1 uM in presence of cisplatin by annexin V-PI based flow cytometric analysis (reference value: 0.2%). Type of assay: functional.
For assay [5], the system named is NCI-H1373. Nature of the assay: Induction of apoptosis in human NCI-H1373 cells assessed as late apoptotic cells at 0.5 uM for 24 hrs by annexin V-PI staining based flow cytometric analysis (reference value: 16.2%). The assay is classed as functional.
Assay [6] deals with LCLC-97TM1. Description: Downregulation of XIAP mRNA expression level in human LCLC-97TM1 cells at 0.1 to 1 uM for 24 hrs by qRT-PCR analysis. The assay is classed as functional, cell-based. The settings on record: dose 0.1-1 µM.
The subject of assay [7] is SK-LU-1. Nature of the assay: Downregulation of XIAP protein expression level in human SK-LU-1 cells at 1 uM for 24 hrs by […] analysis. The assay is classed as functional, cell-based.
Assay [8] concerns NCI-H460. Nature of the assay: Induction of apoptosis in human NCI-H460 cells assessed as late apoptotic cells at 2.5 uM for 24 hrs by annexin V-PI staining based flow cytometric analysis (reference value: 3.0%). Type of assay: functional.
For assay [9], the system named is A549. Description: Antitumor activity against human A549 cells assessed as test to control tumor ratio at 50 mg/kg, ip for 28 days relative to control. Type of assay: functional. As to conditions: time 28 day.
In assay [10] the test system is NCI-H1373. Description: Induction of apoptosis in human NCI-H1373 cells assessed as early apoptotic cells at 0.5 uM for 24 hrs by annexin V-PI staining based flow cytometric analysis (reference value: 0.6%). Type of assay: functional.
The test system of assay [11] is NCI-H358. Description: Downregulation of FLIP mRNA expression level in human NCI-H358 cells at 0.1 to 1 uM for 24 hrs by qRT-PCR analysis. The assay is classed as functional, cell-based. The settings on record: dose 0.1-1 µM.
The subject of assay [12] is A549. Description: Induction of cell cycle arrest in human A549 cells assessed as accumulation of cells at G2/M phase at 0.25 uM for 24 hrs by Click-iT EdU Alexa Fluor 647 flow cytometric assay kit analysis (reference value: 3%). Type of assay: functional.
The subject of assay [13] is NCI-H460. Description: Downregulation of XIAP mRNA expression level in human NCI-H460 cells at 0.1 to 1 uM for 24 hrs by qRT-PCR analysis. Type of assay: functional, cell-based. The settings on record: dose 0.1-1 µM.
The test system of assay [14] is NCI-H358. Nature of the assay: Downregulation of XIAP protein expression level in human NCI-H358 cells at 1 uM for 24 hrs by […] analysis. Type of assay: functional, cell-based.
Assay [15] deals with NCI-H1792. Nature of the assay: Downregulation of XIAP protein expression level in human NCI-H1792 cells at 1 uM for 24 hrs by […] analysis. Type of assay: functional, cell-based.
Assay [16] concerns NCI-H1373. Nature of the assay: Induction of TRAIL dependent apoptosis in human NCI-H1373 cells assessed as early apoptotic cells at 1 uM by annexin V-PI staining based flow cytometric analysis (reference value: 0.5%). Type of assay: functional.
Assay [17] concerns A549. Description: Downregulation of XIAP protein expression level in human A549 cells at 1 uM for 24 hrs by […] analysis. Type of assay: functional, cell-based.
Assay [18] concerns NCI-H460. Description: Downregulation of FLIP mRNA expression level in human NCI-H460 cells at 0.1 to 1 uM for 24 hrs by qRT-PCR analysis. Type of assay: functional, cell-based. The settings on record: dose 0.1-1 µM.
The test system of assay [19] is SK-LU-1. Nature of the assay: Downregulation of FLIP mRNA expression level in human SK-LU-1 cells at 0.1 to 1 uM for 24 hrs by qRT-PCR analysis. The assay is classed as functional, cell-based. The settings on record: dose 0.1-1 µM.
The test system of assay [20] is DV-90. Description: Induction of apoptosis in human DV-90 cells assessed as necrotic cells at 0.5 uM for 48 hrs by annexin V-PI staining based flow cytometric analysis (reference value: 8.4%).
The test system of assay [21] is A549. Description: Induction of apoptosis in human A549 cells assessed as viable cells at 2.5 uM for 24 hrs by annexin V-PI staining based flow cytometric analysis (reference value: 97.7%). Type of assay: functional. The settings on record: read-out: Activity.
Assay [22] concerns NCI-H460. Description: Induction of apoptosis in human NCI-H460 cells assessed as late apoptotic cells at 0.5 uM for 24 hrs by annexin V-PI staining based flow cytometric analysis (reference value: 3.7%). The assay is classed as functional.
The subject of assay [23] is NCI-H1373. Nature of the assay: Induction of apoptosis in human NCI-H1373 cells assessed as viable cells at 0.5 uM for 24 hrs by annexin V-PI staining based flow cytometric analysis (reference value: 71.6%). Type of assay: functional. The settings on record: read-out: Activity.
The test system of assay [24] is NCI-H1373. Nature of the assay: Induction of apoptosis in human NCI-H1373 cells assessed as necrotic cells at 2.5 uM for 24 hrs by annexin V-PI staining based flow cytometric analysis (reference value: 4.4%). The assay is classed as functional.
In assay [25] the test system is NCI-H1373. Nature of the assay: Induction of apoptosis in human NCI-H1373 cells assessed as early apoptotic cells at 0.5 uM for 24 hrs by annexin V-PI staining based flow cytometric analysis (reference value: 1.7%). Type of assay: functional.
The test system of assay [26] is NCI-H460. Description: Induction of apoptosis in human NCI-H460 cells assessed as viable cells at 0.5 uM for 24 hrs by annexin V-PI staining based flow cytometric analysis (reference value: 92.8%). The assay is classed as functional. As to conditions: read-out: Activity.
In assay [27] the test system is DV-90. Description: Induction of cell cycle arrest in human DV-90 cells assessed as accumulation of cells at G0/G1 phase at 0.25 uM for 24 hrs by Click-iT EdU Alexa Fluor 647 flow cytometric assay kit analysis (reference value: 47%). The assay is classed as functional.
Assay [28] relates to DV-90. Description: Induction of cell cycle arrest in human DV-90 cells assessed as accumulation of cells at S phase at 1 uM for 24 hrs by Click-iT EdU Alexa Fluor 647 flow cytometric assay kit analysis (reference value: 30%). Type of assay: functional.
Assay [29] concerns NCI-H460. Description: Induction of cell cycle arrest in human NCI-H460 cells assessed as accumulation of cells at G0/G1 phase at 0.1 uM for 24 hrs by Click-iT EdU Alexa Fluor 647 flow cytometric assay kit analysis (reference value: 45%). The assay is classed as functional.
Assay [30] concerns DV-90. Description: Induction of cell cycle arrest in human DV-90 cells assessed as accumulation of cells at G2/M phase at 0.5 uM for 24 hrs by Click-iT EdU Alexa Fluor 647 flow cytometric assay kit analysis (reference value: 25%). The assay is classed as functional.
Assay [31] deals with NCI-H1373. Nature of the assay: Induction of cell cycle arrest in human NCI-H1373 cells assessed as accumulation of cells at G0/G1 phase at 0.1 uM for 24 hrs by Click-iT EdU Alexa Fluor 647 flow cytometric assay kit analysis (reference value: 48%). The assay is classed as functional.
The test system of assay [32] is DV-90. Description: Induction of cell cycle arrest in human DV-90 cells assessed as accumulation of cells at G2/M phase at 0.1 uM for 24 hrs by Click-iT EdU Alexa Fluor 647 flow cytometric assay kit analysis (reference value: 25%). The assay is classed as functional.
For assay [33], the system named is NCI-H460. Nature of the assay: Induction of cell cycle arrest in human NCI-H460 cells assessed as accumulation of cells at G0/G1 phase at 0.5 uM for 24 hrs by Click-iT EdU Alexa Fluor 647 flow cytometric assay kit analysis (reference value: 45%). Type of assay: functional.

Turning to `Cc1sc2c(c1C)C(c1ccc(Cl)cc1)=N[C@@H](CC(=O)OC(C)(C)C)c1nnc(C)n1-2`, the outcome in assay [1], in assay [3], in assay [6], in [7], in [11] and in assay [13] was Active. Further, the outcome in assay [14], in assay [15], in [17], in assay [18] and in assay [19] was Active. In assay [2], the viability at 0.5 µM was determined as 64.3%. The Activity was determined as 2.2% in assay [4]; 20.2% in [5]; 5.5% in assay [8]; 2.5% in [10]; 3% in assay [12]; 2.4% in assay [16]. Besides, the T/C in [9] amounted to 79%.

Regarding `Cc1sc2c(c1C)C(c1ccc(Cl)cc1)=N[C@@H](CC(=O)Nc1ccc(O)cc1)c1nnc(C)n1-2` [BIRABRESIB], the Activity in [20] stood at 27.6%; in assay [22], 4.6%; in [24], 21.4%; in assay [25] it was 2.6%; in [27], 52%. For the same compound, the viability at 2.5 µM in assay [21] came out at 97.3%. The viability at 0.5 µM in assay [23] was 67.4%; in assay [26], 90.6%.

For `CCNC(=O)C[C@@H]1N=C(c2ccc(Cl)cc2)c2cc(OC)ccc2-n2c(C)nnc21` [MOLIBRESIB], the Activity in assay [28] stood at 22%; in assay [29], 45%; in [30], 30%; in assay [31], 47%; in assay [32], 31%; in assay [33], 51%.
